Source: the NIST ThermoML archive (doi:10.1016/j.fluid.2006.09.007)
Numbers after ± are expanded uncertainties.

Conditions: Liquid, Ebulliometric method (Recirculating still)

| vapor or sublimation pressure (315 K) | vapor or sublimation pressure (318 K) | vapor or sublimation pressure (321 K) | vapor or sublimation pressure (324 K) | vapor or sublimation pressure (327 K) | vapor or sublimation pressure (330 K) | vapor or sublimation pressure (333 K) | vapor or sublimation pressure (336 K) | vapor or sublimation pressure (339 K) | vapor or sublimation pressure (342 K) | vapor or sublimation pressure (345 K) | Structure (SMILES) | vapor or sublimation pressure (314 K) | vapor or sublimation pressure (317 K) | vapor or sublimation pressure (320 K) | vapor or sublimation pressure (323 K) | vapor or sublimation pressure (326 K) | vapor or sublimation pressure (329 K) | vapor or sublimation pressure (332 K) | vapor or sublimation pressure (335 K) | vapor or sublimation pressure (338 K) |
| --- | --- | --- | --- | --- | --- | --- | --- | --- | --- | --- | --- | --- | --- | --- | --- | --- | --- | --- | --- | --- |
|  |  |  |  |  |  |  |  |  |  |  | CC(C)=O [acetone] | 57.96 ± 0.47 kPa | 64.95 ± 0.49 kPa | 72.6 ± 0.54 kPa | 80.96 ± 0.58 kPa | 90.08 ± 0.64 kPa | 100 ± 0.69 kPa | 110.78 ± 0.75 kPa | 122.47 ± 0.81 kPa | 135.11 ± 0.85 kPa |
| 38.33 ± 0.38 kPa | 43.97 ± 0.4 kPa | 50.29 ± 0.45 kPa | 57.36 ± 0.5 kPa | 65.25 ± 0.56 kPa | 74.02 ± 0.62 kPa | 83.76 ± 0.68 kPa | 94.55 ± 0.76 kPa | 106.47 ± 0.84 kPa | 119.61 ± 0.92 kPa | 134.07 ± 0.96 kPa | CO [methanol] |  |  |  |  |  |  |  |  |  |
